We go through seven molecules from US20110098284A1, “Methods and compositions for treating pain” (priority 2005, published 2011).

In data set [1] the test system is marginal vein of each ear. Particulars: for edema at injection site / erythema at injection site: 24 hour observation.
For data set [2] the following is noted: cited from earlier work.
The conditions of data set [3]: cited from earlier work; for incidence of injection site pain: diclofenac 75 mg or ketorolac 30 mg IM (Morrow).
The conditions of data set [4]: CABG study, cited from earlier work.
The conditions of data set [5]: vs. 0% placebo; P=0.03; cited from earlier work.
The test system of data set [6] is marginal vein of each ear. In words: Histopathological evaluation of injection sites (Example 11). It is filed as in vivo, New Zealand White rabbits. Here is the method: Injection sites underwent histopathological evaluation.
Thrombosis was recorded for amorphous aggregates of fibrin like material within vascular lumens and variably adherent to vessel walls.

For data set [7] the following is noted: stored for 12 weeks at 5° C., 25° C./60% RH, 30° C./60% RH, 40° C./75% RH; for original NSAID content on storage: stability indicating HPLC; for visible signs of crystallization, deviation in pH and osmolarity on storage: vials or ampoules sealed under nitrogen.
Where [8] appears, read: Treatment A, 5 mg/0.1 mL IV over one minute.
Setting [9] is: Treatment B, 15 mg/0.3 mL IV over one minute.
[10] abbreviates: 1 mg/kg over 10 min as solution of 25 mg/mL (Campbell and Watters).
Where [11] appears, read: IV using a diluted infusion (Campbell and Watters).

Where two headings read alike, the source gives them in different places.

For `CC(C(=O)O)c1cccc(C(=O)c2ccccc2)c1` (racemic) [Ketoprofen, (±)-2-(3-benzoylphenyl)propionic acid], the “irritation in the ear veins” value is “produced irritation” in data set [1] (Treatment A, 5 mg/0.1 mL IV) and “produced irritation” in data set [1] (Treatment B, 15 mg/0.3 mL IV). Further, the “edema at injection site” value in data set [1] (setting [8]) is “slight”; in data set [1] (setting [9]), “very slight”. Besides, the “erythema at injection site” value is given as “well defined” in data set [1] (setting [8]) and “very slight to moderate to severe” in data set [1] (setting [9]).

Take `O=C(O)Cc1ccccc1Nc1c(Cl)cccc1Cl` [diclofenac, 2-(2,6-dichlorophenylamino)benzeneacetic acid]: the “patients who developed phlebitis” value in data set [2] (1 mg/kg in 100 mL saline every 12 hours x 2 doses, maxillofacial surgery (Tarkkila)) is recorded as 10%. In addition, in data set [2] (setting [10]), the “incidence of phlebitis, arm” value is 58% and the “incidence of phlebitis, hand” value was 85%. In data set [2] (setting [11]), the “incidence of thrombosis, arm veins” value is recorded as 8% and the “incidence of thrombosis, hand veins” value is reported as 38%. Moreover, the “patients who developed phlebitis” value in data set [2] (after hip replacement surgery, diclofenac 75 mg IV over 30 minutes then 75 mg/15.5 hours, ketoprofen 100 mg over 30 min then 100 mg/15.5 hours (Kostamovaara)) is given as 14%. The “patients who experienced phlebitis” value in data set [2] (after major orthopedic surgery, 0.35 mg/kg IV then 0.90 mcg/min continuous infusion, 6 hours after start (Claeys)) is 5%. The “time of (delayed) venous thrombosis” value in data set [2] (diluted in 100 to 200 mL, infused over 15 to 20 minutes (Gopinath)) was more than 72 h. In addition, in data set [3] (IM (Pillans and O'Connor)), the “cases of severe local reactions” value is recorded as “six”, the patients who died result was “Two of the six”, the “patients with extensive tissue necrosis at the IM injection site” value is listed as “Three” and the “patients with necrotizing fasciitis” value is recorded as “three”. Moreover, the “share of all accepted claims for injection related complications” value in data set [3] (IM administration, New Zealand 1992 to 2003) is 22.6%. Further, the “incidence of injection site pain” value in data set [3] was 31%.

Consider `O=C(c1ccccc1)c1ccc2n1CCC2C(=O)O` (stereo not drawn) [ketorolac], for which the “incidence of injection site pain” value in data set [3] is 3%.

On to `CCC(=O)NS(=O)(=O)c1ccc(-c2c(-c3ccccc3)noc2C)cc1` [parecoxib], for which the deaths in data set [4] (vs. 0 placebo) is 4. In data set [4] (vs. 0.7% placebo), the cerebrovascular events is 2.6% and the “incidence of myocardial infarctions” value is on record as 1.9%. Also, the sternal wound infections in data set [5] is listed as 3.2%.

`CN1C(C(=O)Nc2ccccn2)=C(O)c2ccccc2S1(=O)=O.NCCN` [piroxicam-ethylenediamine]: in data set [6] (rabbit, in vivo), the “incidence of inflammatory cell infiltrates” value is reported as “low”; the “mean intensity (severity) of edema and infiltrates” value is recorded as “none to negligible”. Further, in data set [7], the “original NSAID content on storage” value is listed as 100%±5%; the “visible signs of crystallization, deviation in pH and osmolarity on storage” value was “no visible signs of crystallization or significant deviation in pH and osmolarity”.

As to `CN1C(C(=O)Nc2ccccn2)=C(O)c2sccc2S1(=O)=O.CN1C(C(=O)Nc2ccccn2)=C(O)c2sccc2S1(=O)=O.NCCN` [tenoxicam ethylenediamine], in data set [7], the “original NSAID content on storage” value was 100%±5%; the “visible signs of crystallization, deviation in pH and osmolarity on storage” value is “no visible signs of crystallization or significant deviation in pH and osmolarity”.

As for `CN1C(C(=O)Nc2ccccn2)=C(O)c2ccccc2S1(=O)=O` [unsalified piroxicam, 4-hydroxy-2-methyl-N-2-pyridinyl-2H-1,2-benzothiazine-3-carboxamide-1,1-dioxide], in data set [6] (at the end of needle progression and 1 cm away from the end of progression), the “incidence of inflammatory cell infiltrates” value was “intermediate”. Besides, in data set [6] (injection site histopathology), the “mean intensity (severity) of edema and infiltrates” value is given as “intermediate”.
